Results reported in patent US11254690B2, “PTEFb inhibiting macrocyclic compounds” (BAYER AKTIENGESELLSCHAFT, priority 2017, dated 2022).

How the values were obtained:
CDK2/CycE = biological target: T1, CDK2/CycE (Homo sapiens, UniProt P24941); assay: CDK2/CycE high ATP kinase assay (TR-FRET, 2 mM ATP); format: biochemical; conditions: Method 2b
T1 construct: GST; purchased ProQinase GmbH (Freiburg, Germany); host or cells: insect cells (Sf9)
Outline: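 Recombinant GST-tagged human CDK2 and CycE from Sf9 cells (about 10 ng/ml), biotinylated peptide substrate, 2 mM ATP, Tris pH 8.0 buffer; compound pre-incubated 15 min at 22° C. Phospho-substrate detected by TR-FRET with anti-RB(pSer807/pSer811) antibody, 665/622 nm ratio; normalised to no-inhibitor and no-enzyme controls.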

HeLa cells = assay: Proliferation assay, HeLa; format: cell-based; conditions: Homo sapiens, 96 h, 4 days, crystal violet, read-out: Inhibition of HeLa cell proliferation IC50
Method: (§1) Cultivated tumour cells (HeLa, human cervical tumour cells, ATCC CCL-2; NCI-H460, human non-small cell lung carcinoma cells, ATCC HTB-177; DU 145, hormone-independent human prostate carcinoma cells, ATCC HTB-81; HeLa-MaTu-ADR, multidrug-resistant human cervical carcinoma cells, EPO-GmbH Berlin; Caco-2, human colorectal carcinoma cells, ATCC HTB-37; B16F10, mouse melanoma cells, ATCC CRL-6475) were plated at a density of 5,000 cells/well (DU145, HeLa-MaTu-ADR), 3,000 cells/well (NCI-H460, HeLa), 1,500 cells/well (Caco-2), or 1,000 cells/well (B16F10) in a 96-well multititer plate in 200 μL of their respective growth medium supplemented 10% fetal calf serum. After 24 hours, the cells of one plate (zero-point plate) were stained with crystal violet (see below), while the medium of the other plates was supplemented with the test substances in various concentrations (0 μM, as well as in the range of 0.0001-10 μM; the final concentration of the solvent dimethyl sulfoxide was adjusted to 0.1%) using a Hewlett-Packard HP D300 Digital Dispenser. The cells were incubated for 4 days in the presence of test substances. Cell proliferation was determined by staining the cells with crystal violet: the cells were fixed by adding 20 μl/measuring point of an 11% glutaric aldehyde solution for 15 minutes at room temperature. After three washing cycles of the fixed cells with water, the plates were dried at room temperature. The cells were stained by adding 100 μl/measuring point of a 0.1% crystal violet solution (pH 3.0). After three washing cycles of the stained cells with water, the plates were dried at room temperature. The dye was dissolved by adding 100 μl/measuring point of a 10% acetic acid solution. The extinction was determined by photometry at a wavelength of 595 nm. The change of cell number, in percent, was calculated by normalization of the measured values to the extinction values of the zero-point plate (=0%) and the extinction of the untreated ([…]) cells (=100%). The IC50 values (inhibitory concentration at 50% of maximal effect) were determined by means of a 4 parameter fit. A2780 human ovarian carcinoma cells (ECACC #93112519) and non-adherent MOLM-13 human acute myeloid leukemia cells (DSMZ ACC 554) were seeded at a density of 3,000 cell/well (A2780) or 5,000 cells/well (MOLM-13) in a 96-well multititer plate in 150 μL of growth medium supplemented 10% fetal calf serum. After 24 hours, cell viability of one plate (zero-point plate) was determined with the Cell Titre-Glo Luminescent Cell Viability Assay (Promega), while the medium of the other plates was supplemented with the test substances in various concentrations (0 μM, as well as in the range of 0.0001-10 μM; the final concentration of the solvent dimethyl sulfoxide was adjusted to 0.1%) using a Hewlett-Packard HP D300 Digital Dispenser. Cell viability was assessed after 72-hour exposure with the Cell Titre-Glo Luminescent Cell Viability Assay (Promega). IC50 values (inhibitory concentration at 50% of maximal effect) were determined by means of a 4 parameter fit on measurement data which were normalized to vehicle (DMSO) treated cells (=100%) and measurement readings taken immediately before compound exposure (=0%).

HeLa-MaTu-ADR cells = assay: Proliferation assay, HeLa-MaTu-ADR; format: cell-based; conditions: Homo sapiens, 96 h; 4 days, crystal violet; read-out: Inhibition of HeLa-MaTu-ADR cell proliferation IC50
Method: as §1

NCI-H460 cells = assay: Proliferation assay, NCI-H460; format: cell-based; conditions: Homo sapiens, NCI-H460, 96 h; 4 days, crystal violet; read-out: Inhibition of NCI-H460 cell proliferation IC50
Method: as §1

MOLM-13 cells = assay: Proliferation assay, MOLM-13; format: cell-based; conditions: Homo sapiens, 72-hour exposure, Cell Titre-Glo, read-out: Inhibition of MOLM-13 cell proliferation IC50
Method: as §1

IC50 (CDK2/CycE) [nM]	IC50 (HeLa cells) [nM]	IC50 (HeLa-MaTu-ADR cells) [nM]	IC50 (NCI-H460 cells) [nM]	IC50 (MOLM-13 cells) [nM]	Compound
737	90	78	157	27	CS(=N)(=O)Cc1cc2nc(c1)OCCCCOc1cc(ccc1F)-c1cc(ncc1F)N2 (racemic) [Example 2, (rac)-3,20-difluoro-10-[(S-methylsulfonimidoyl)methyl]-13,18-dioxa-5,7,24-triazatetracyclo[17.3.1.1^2,6.1^8,12]pentacosa-1(23),2(25),3,5,8(24),9,11,19,21-nonaene]
> 20000	244	218	267	108	CC(C)(C)OC(=O)N=S(C)(=O)Cc1cc2cc(c1)OCCCCOc1cc(ccc1F)-c1nc(ncc1F)N2 (racemic) [Example 3, (rac)-tert-butyl [{[3,20-difluoro-13,18-dioxa-5,7,25-triazatetracyclo[17.3.1.1^2,6.1^8,12]pentacosa-1(23),2(25),3,5,8(24),9,11,19,21-nonaen-10-yl]methyl}(methyl)oxido-λ^6-sulfanylidene]carbamate]
1540	150	140	331	20	CS(=N)(=O)Cc1cc2cc(c1)OCCCCOc1cc(ccc1F)-c1nc(ncc1F)N2 (racemic) [Example 4, (rac)-3,20-difluoro-10-[(S-methylsulfonimidoyl)methyl]-13,18-dioxa-5,7,25-triazatetracyclo[17.3.1.1^2,6.1^8,12]pentacosa-1(23),2(25),3,5,8(24),9,11,19,21-nonaene]
> 20000	964	1000	479	228	CC(C)(C)OC(=O)N=S(C)(=O)Cc1cc2cc(c1)OCCCCCOc1cc(ccc1F)-c1nc(ncc1F)N2 (racemic) [Example 5, (rac)-tert-butyl [{[3,21-difluoro-13,19-dioxa-5,7,26-triazatetracyclo[18.3.1.1^2,6.1^8,12]hexacosa-1(24),2(26),3,5,8(25),9,11,20,22-nonaen-10-yl]methyl}(methyl)oxido-λ^6-sulfanylidene]carbamate]
16200	199	169	277	140	CS(=N)(=O)Cc1cc2cc(c1)OCCCCCOc1cc(ccc1F)-c1nc(ncc1F)N2 (racemic) [Example 6, (rac)-3,21-difluoro-10-[(S-methylsulfonimidoyl)methyl]-13,19-dioxa-5,7,26-triazatetracyclo[18.3.1.1^2,6.1^8,12]hexacosa-1(24),2(26),3,5,8(25),9,11,20,22-nonaene]
6520	177	179	217	45	CS(=N)(=O)Cc1cc2cc(c1)OCCCCOc1c(F)ccc(c1F)-c1nc(ncc1F)N2 (racemic) [Example 8, (rac)-3,20,23-trifluoro-10-[(S-methylsulfonimidoyl)methyl]-13,18-dioxa-5,7,25-triazatetracyclo[17.3.1.1^2,6.1^8,12]pentacosa-1(23),2(25),3,5,8(24),9,11,19,21-nonaene]
4750	128	155	238	33	CS(=N)(=O)Cc1cc2cc(c1)OCCCOc1cc(ccc1F)-c1nc(ncc1F)N2 (racemic) [Example 10, (rac)-3,19-difluoro-10-[(S-methylsulfonimidoyl)methyl]-13,17-dioxa-5,7,24-triazatetracyclo[16.3.1.1^2,6.1^8,12]tetracosa-1(22),2(24),3,5,8(23),9,11,18,20-nonaene]
360	–	–	–	–	CC1CCCOc2cc(ccc2F)-c2cc(ncc2F)Nc2cc(CS(C)(=O)=O)cc(n2)O1 (racemic) [Example 28, 3,20-difluoro-14-methyl-10-[(methylsulfonyl)methyl]-13,18-dioxa-5,7,24-triazatetracyclo[17.3.1.1^2,6.1^8,12]pentacosa-1(23),2(25),3,5,8(24),9,11,19,21-nonaene]
144	–	–	–	–	CC1CCCOc2cc(ccc2F)-c2cc(ncc2F)Nc2cc(CS(C)(=N)=O)cc(n2)O1 (single isomer, unassigned) [Example 16, 3,20-difluoro-14-methyl-10-[(S-methylsulfonimidoyl)methyl]-13,18-dioxa-5,7,24-triazatetracyclo[17.3.1.1^2,6.1^8,12]pentacosa-1(23),2(25),3,5,8(24),9,11,19,21-nonaene]
132	–	–	–	–	CC1CCCOc2cc(ccc2F)-c2cc(ncc2F)Nc2cc(CS(C)(=N)=O)cc(n2)O1 (single isomer, unassigned) [Example 17, 3,20-difluoro-14-methyl-10-[(S-methylsulfonimidoyl)methyl]-13,18-dioxa-5,7,24-triazatetracyclo[17.3.1.1^2,6.1^8,12]pentacosa-1(23),2(25),3,5,8(24),9,11,19,21-nonaene]
2450	–	–	–	–	CC1CCCCOc2cc(ccc2F)-c2cc(ncc2F)Nc2cc(CS(C)(=N)=O)cc(n2)O1 (single isomer, unassigned) [Example 21, 3,21-difluoro-14-methyl-10-[(S-methylsulfonimidoyl)methyl]-13,19-dioxa-5,7,25-triazatetracyclo[18.3.1.1^2,6.1^8,12]hexacosa-1(24),2(26),3,5,8(25),9,11,20,22-nonaene]
501	–	–	–	–	CC1CCCCOc2cc(ccc2F)-c2cc(ncc2F)Nc2cc(CS(C)(=N)=O)cc(n2)O1 (single isomer, unassigned) [Example 22, 3,21-difluoro-14-methyl-10-[(S-methylsulfonimidoyl)methyl]-13,19-dioxa-5,7,25-triazatetracyclo[18.3.1.1^2,6.1^8,12]hexacosa-1(24),2(26),3,5,8(25),9,11,20,22-nonaene]
